{"source": "paper PMC9137037", "about": "(Frontiers in Oncology, 2022)", "key": {"[1]": {"system": "beagle dogs", "test": "Antibody isotyping of sera of immunized beagle dogs", "format": "in vivo, dog", "conditions": "dogs #1-#3"}, "[2]": {"target": "T1, human recombinant protein PD-1 (Homo sapiens, UniProt Q15116)", "T1 construct": "His tag; purchased ACROBiosystems PD1-H5221", "T1 sequence (Q15116 25-288)": "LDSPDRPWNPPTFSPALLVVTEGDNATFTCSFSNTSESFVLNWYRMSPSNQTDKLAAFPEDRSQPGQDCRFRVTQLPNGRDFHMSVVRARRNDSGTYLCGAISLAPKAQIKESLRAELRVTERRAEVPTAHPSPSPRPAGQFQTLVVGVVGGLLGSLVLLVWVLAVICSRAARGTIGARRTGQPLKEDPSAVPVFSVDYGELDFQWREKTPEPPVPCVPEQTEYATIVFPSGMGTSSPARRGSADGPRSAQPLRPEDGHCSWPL", "test": "ELISA activity of dog sera with human recombinant protein PD-1", "format": "binding", "conditions": "Figure 3F", "experimental": "For the detection of PD-1 human recombinant protein activity, the human recombinant protein PD-1 (PD1-H5221, HIS tag; ACROBiosystems, Newark, DE, USA) 100 μl at the concentration of […] were coated on the 96 wells plate as an antigen. The following procedures were performed as the description of ELISA.\nIn order to investigate the diversity of the antibody produced by immunized dogs, isotypes IgM, IgA, IgG1, and IgG2 in dogs were detected after being immunized with the peptide vaccine ( Figure 3E ). In MVF-PD-1(92-110) vaccine-treated dogs, the majority of isotype is IgG2, which ranged from 74% to 81%, the IgG1 range from 12% to 18%, IgM from 5% to 9%, and IgA less than 2%. Peptide sera from dogs #1, 2, and 3 were used to detect the antibody activity against human recombinant protein PD-1."}, "[3]": {"system": "cynomolgus monkeys", "test": "GLP repeat-dose toxicology, first monkey study No.00213515", "format": "in vivo, Macaca fascicularis", "experimental": "The non-human primate studies were carried out by the Charles River Laboratories (Ashland, OH USA). All the cynomolgus monkeys (Macaca fascicularis of Chinese origin) were obtained from Charles River Laboratories (Houston, TX, USA). In brief, the animals were approximately 2–4 years old and at the body weight between 2.2 and 3.1 kg at the initial dosing. The animals were kept at the temperature between 19°C and 24°C, humidity 30%–70%, and with 12 h light and 12 h dark light cycle. The Good manufacturing practice (GMP)-manufactured vaccine was used in the non-human primate study. […] Similar to mouse and dog dosing preparation, after the emulsion was prepared, a drop test was performed on each time of dosing to confirm that the emulsion had been prepared properly. […] The dose volume was split approximately equally across two different sites; 0.5 ml of the dose was intramuscularly (IM) injected into the right posterior lateral thigh, the left dosing was injected into the left site. All the animals’ body weights were monitored weekly after receiving. After each immunization, the animal body temperature was tested 6 and 24 h post each immunization. […] The animal bleed were collected before each time of immunization to monitor the antibody titers. There were two sets of non-human primate studies conducted. The first set of monkey study No.00213515 had 24 monkeys, 12 males, and 12 females divided into 4 groups: vehicle control, low dose 0.5 mg, medium dose 2 mg, and high dose 5 mg. There were 16 monkeys (8 males and 8 females) in the second set of monkey study No. 00213519. The monkeys in the four groups were vaccinated as follows: vehicle control, low dose 25 μg, medium dose 100 μg, and high dose 250 μg.\nIn the non-human primate study (#00213515), 24 non-human primates, cynomolgus monkeys, were used. The monkeys were immunized four times (1Y, 2Y, 3Y, and 4Y at days 1, 15, 29, and 43, respectively). Sera were collected at day 1 (pre), day 43, and day 59 ( Figure 4A ). There were four groups and 6 monkeys in each group. Group 1 was the control group, which was treated with only ISA 720 and ddwater. Groups 2, 3, and 4 were peptide PD-1Vaxx treatment groups and were treated with low-dose 0.5 mg/dose, medium-dose […], or high-dose […] peptide vaccine, respectively ( Figure 4B ), emulsified in ISA 720.\nThese observations were first noted beginning after the second or third dose and were more frequent in female monkeys compared to male monkeys. • b) After the recovery period, all APi2568-related clinical observations had either recovered or were in the process of recovering, with the exception of swollen hind limbs."}}, "note": "Where no end group is shown, it is not given here.", "data": [{"sequence": "KLLSLIKGVIVHRLEGVEGPSLGAISLAPKAQIKESLRAEL [MVF-PD-1(92-110)]", "values": [{"measurement": "IgA isotype percentage", "setting": "[1]", "result": "less than 2%"}, {"measurement": "activity against recombinant PD-1 protein (summary)", "setting": "[2]", "result": "high activity against recombinant PD-1 protein"}, {"measurement": "no-observed-adverse-effect level (NOAEL)", "setting": "[3]; 0.5, 2, 5 mg/dose IM as PD1-Vaxx, male and female cynomolgus monkeys", "result": "could not be determined"}, {"measurement": "clinical findings at or near the IM site of dose administration", "setting": "[3]; 0.5, 2, and 5 mg/dose groups, first noted after second or third dose, more frequent in females", "result": "adverse swelling, ulceration, and/or abscess formation"}, {"measurement": "induction of autoimmune responses", "setting": "[3]; cynomolgus monkeys", "result": "has not been observed"}, {"measurement": "safety (summary)", "setting": "[3]; monkey 1st set", "result": "safe"}]}]}
